Structures can show the parent of a compound that is named as a salt. Where two headings read alike, the source gives them in different places. Each block holds one molecule with its values, some of them ahead of it. Where a SMILES comes first, the peptide text is derived from it. Where no end group is shown, it is not given here.
Assays:
[1] = Simulated digestive stability of peptides (pepsase then trypsase); type: in vitro ADME, porcine; details: pig, relative to basal 100, sheet S2H; for remaining at 4 h, 5 mg/mL: pH 7, simulated digestion, after pepsase then trypsase, read-out: Peptide remaining, Trypsase; for remaining at 2 h, 5 mg/mL: porcine pepsase (simulated gastric digestion), pH 3, simulated digestion, after porcine pepsase, read-out: Peptide remaining, Pepsase
Description: (§1) The in vitro digestibility of the peptides was determined according to the method described by Ohanenye et al. with some modifications. Briefly, 5.0 mg/mL peptides were mixed with 5000 U/mL porcine pepsase (pH 3.0). The mixture was incubated with continuous shaking in a water bath at 37 ℃ for 2 h. Then, the mixture was adjusted to pH 7.0, and a final concentration of 100 U/mL trypsase was added, followed by continuous shaking at 37 ℃ for another 2 h. After digestion, the enzyme was inactivated, and the mixture was incubated in a water bath (100 ℃) for 20 min. Subsequently, the mixture was centrifuged at 6000 rpm for 20 min, after which the supernatants were collected for further analysis. The concentrations of peptides in the digestions and TPH were determined via AB SCIEX QTrap 6600+ (AB Sciex, Framingham, Massachusetts).

[2] = test system: porcine pepsase and trypsase; assay: as above; type: in vitro ADME; details: in words; 5.0 mg/mL peptide, pepsase 5000 U/mL pH 3.0 37 °C 2 h, then trypsase 100 U/mL pH 7.0 37 °C 2 h, LC-MS
Description: as §1

DPP-IV [3] = target: T1, DPP-IV (Homo sapiens, UniProt P27487); assay: DPP-IV inhibitory activity of peptides (DPP-IV-Glo Protease Assay Kit); type: biochemical; set-up: purchased QiZheng Biotech (Shanghai, China) IBDPP0901; details: for DPP-IV inhibitory activity: DPP-IV-Glo Protease Assay Kit, control = 0, in % (unit assumed)
Target sequence in this assay (P27487 whole entry): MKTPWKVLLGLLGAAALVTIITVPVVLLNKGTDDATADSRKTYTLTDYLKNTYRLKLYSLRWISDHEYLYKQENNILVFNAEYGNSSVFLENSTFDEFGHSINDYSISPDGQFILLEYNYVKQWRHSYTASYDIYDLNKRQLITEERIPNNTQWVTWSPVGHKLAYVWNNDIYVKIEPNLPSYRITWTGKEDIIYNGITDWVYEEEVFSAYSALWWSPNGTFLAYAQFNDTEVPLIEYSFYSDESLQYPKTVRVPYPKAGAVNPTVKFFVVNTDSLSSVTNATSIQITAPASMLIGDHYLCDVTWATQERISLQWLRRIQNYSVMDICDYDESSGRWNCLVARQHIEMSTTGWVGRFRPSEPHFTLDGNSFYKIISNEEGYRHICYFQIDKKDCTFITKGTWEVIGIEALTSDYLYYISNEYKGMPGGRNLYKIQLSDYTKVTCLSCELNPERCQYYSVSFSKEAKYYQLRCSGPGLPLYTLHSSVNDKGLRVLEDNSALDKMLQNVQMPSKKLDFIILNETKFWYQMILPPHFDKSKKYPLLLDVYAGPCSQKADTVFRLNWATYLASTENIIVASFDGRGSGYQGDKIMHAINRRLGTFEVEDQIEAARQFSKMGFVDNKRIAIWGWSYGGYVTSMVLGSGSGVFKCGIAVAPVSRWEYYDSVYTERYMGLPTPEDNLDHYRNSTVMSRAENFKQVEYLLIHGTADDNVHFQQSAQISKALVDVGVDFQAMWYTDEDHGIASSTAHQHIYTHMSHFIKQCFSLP

DPP-IV [4] = target: T1, DPP-IV; assay: Surface plasmon resonance (Biacore 8K, CM5 chip, 25 °C); type: binding; set-up: purchased QiZheng Biotech (Shanghai, China) IBDPP0901
A. muciniphila [5] = assay: HFD-fed mice, VAMP and/or benzydamine 4 weeks: A. muciniphila abundance in faeces (qPCR); type: in vivo, mouse; details: in words, 50 mg/kg three times per week for 4 weeks
A. muciniphila [6] = assay: Effect of different drugs (50 μM) on the growth of A. muciniphila; type: cell-based, Akkermansia muciniphila; details: in words; drugs at 50 μM
dipeptidyl peptidase IV = dipeptidyl peptidase IV (UniProt P27487)
Sequence of dipeptidyl peptidase IV (P27487 41-765): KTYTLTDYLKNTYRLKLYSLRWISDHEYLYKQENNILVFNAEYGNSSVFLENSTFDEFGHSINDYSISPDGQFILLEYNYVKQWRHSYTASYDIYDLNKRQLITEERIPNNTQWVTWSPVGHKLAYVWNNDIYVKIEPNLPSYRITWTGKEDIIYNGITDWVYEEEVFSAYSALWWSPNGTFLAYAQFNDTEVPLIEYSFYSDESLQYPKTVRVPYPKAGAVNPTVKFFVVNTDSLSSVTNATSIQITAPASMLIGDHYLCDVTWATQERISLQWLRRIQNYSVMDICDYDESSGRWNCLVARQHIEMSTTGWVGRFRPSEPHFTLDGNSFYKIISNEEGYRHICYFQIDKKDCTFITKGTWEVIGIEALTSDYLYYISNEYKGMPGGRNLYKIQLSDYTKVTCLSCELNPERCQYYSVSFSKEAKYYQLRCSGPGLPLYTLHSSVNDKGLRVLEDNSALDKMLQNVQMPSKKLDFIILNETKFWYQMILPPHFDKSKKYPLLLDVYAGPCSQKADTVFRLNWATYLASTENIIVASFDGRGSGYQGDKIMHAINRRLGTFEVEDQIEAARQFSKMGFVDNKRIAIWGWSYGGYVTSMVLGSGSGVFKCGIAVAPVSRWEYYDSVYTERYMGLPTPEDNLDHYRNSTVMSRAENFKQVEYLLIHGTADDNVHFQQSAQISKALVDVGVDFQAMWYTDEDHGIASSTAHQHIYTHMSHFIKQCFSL

[7] = SPR, Table S3, read-out: KD values

remaining at 4 h, 5 mg/mL ([1]; replicate 1): 9.2%
remaining at 4 h, 5 mg/mL ([1]; replicate 2): 9.52%
remaining at 4 h, 5 mg/mL ([1]; replicate 3): 7.78%
remaining at 2 h, 5 mg/mL ([1]; replicate 1): 12.2%
remaining at 2 h, 5 mg/mL ([1]; replicate 2): 14.3%
remaining at 2 h, 5 mg/mL ([1]; replicate 3): 10.4%
DPP-IV inhibitory activity (DPP-IV [3]; replicate 1, sheet S2F): 63.2506
DPP-IV inhibitory activity (DPP-IV [3]; replicate 2, sheet S2F): 57.5085
DPP-IV inhibitory activity (DPP-IV [3]; replicate 3, sheet S2F): 57.0946
IC50 (DPP-IV [3]; Table S3, read-out: IC50): 350 µM
Kd (DPP-IV [4]; [7]): 14 µM
Molecule: CC(C)[C@H](N)C(=O)N[C@@H](C)C(=O)N[C@@H](CC(=O)O)C(=O)N[C@@H](Cc1c[nH]c2ccccc12)C(=O)O [VADW] (H-VADW-OH)

IC50 of inhibition of DPP-IV activity in vitro (dipeptidyl peptidase IV): 0.51 mM
Molecule: YNLP

IC50 of inhibition of DPP-IV activity in vitro (dipeptidyl peptidase IV): 7.11 mM
Molecule: YTPHW

IC50 of inhibition of DPP-IV activity in vitro (dipeptidyl peptidase IV): 0.63 mM
Molecule: WDSY

IC50 of inhibition of DPP-IV activity in vitro (dipeptidyl peptidase IV): 0.41 mM
Molecule: YSYA

IC50 of inhibition of DPP-IV activity in vitro (dipeptidyl peptidase IV): 0.65 mM
Molecule: YQLM

IC50 of inhibition of DPP-IV activity in vitro (dipeptidyl peptidase IV): 0.32 mM
Molecule: YTGD

IC50 of inhibition of DPP-IV activity in vitro (dipeptidyl peptidase IV): 0.001 mM
Molecule: VAMP

Further lines, the molecule ahead of its results:

Molecule: NC(=O)CC[C@H](NC(=O)[C@@H]1CCCN1C(=O)[C@@H](N)Cc1ccccc1)C(=O)N[C@@H](CO)C(=O)O [FPQS] (H-FPQS-OH)
remaining at 4 h, 5 mg/mL ([1]; replicate 1): 85.1%
remaining at 4 h, 5 mg/mL ([1]; replicate 2): 83.4%
remaining at 4 h, 5 mg/mL ([1]; replicate 3): 87.9%
remaining at 2 h, 5 mg/mL ([1]; replicate 1): 94.6%
remaining at 2 h, 5 mg/mL ([1]; replicate 2): 92.4%
remaining at 2 h, 5 mg/mL ([1]; replicate 3): 92.7%
Resistance to simulated gastric pepsase and trypsase digestion [2]: readily resistant
DPP-IV inhibitory activity (DPP-IV [3]; replicate 1, sheet S2F): 35.1258
DPP-IV inhibitory activity (DPP-IV [3]; replicate 2, sheet S2F): 29.3845
DPP-IV inhibitory activity (DPP-IV [3]; replicate 3, sheet S2F): 34.8747
IC50 (DPP-IV [3]; Table S3, read-out: IC50): 350 µM
IC50 (DPP-IV [3]; source data of heatmap Fig 1J, read-out: IC50): 80 µM

Molecule: CC(C)C[C@H](NC(=O)[C@@H](N)CC(C)C)C(=O)N[C@@H](Cc1ccc(O)cc1)C(=O)O [LLY] (H-Leu-Leu-Tyr-OH)
remaining at 4 h, 5 mg/mL ([1]; replicate 1): 0.95%
remaining at 4 h, 5 mg/mL ([1]; replicate 2): 0.78%
remaining at 4 h, 5 mg/mL ([1]; replicate 3): 0.81%
remaining at 2 h, 5 mg/mL ([1]; replicate 1): 1.24%
remaining at 2 h, 5 mg/mL ([1]; replicate 2): 0.79%
remaining at 2 h, 5 mg/mL ([1]; replicate 3): 0.98%
DPP-IV inhibitory activity (DPP-IV [3]; replicate 1, sheet S2F): 32.8224
DPP-IV inhibitory activity (DPP-IV [3]; replicate 2, sheet S2F): 33.3933
DPP-IV inhibitory activity (DPP-IV [3]; replicate 3, sheet S2F): 36.9146
IC50 (DPP-IV [3]; Table S3, read-out: IC50): 830 µM
Kd (DPP-IV [4]; [7]): 5.23 µM

Molecule: CC(C)C[C@H](NC(=O)[C@H](CC(N)=O)NC(=O)[C@@H](N)Cc1ccc(O)cc1)C(=O)N1CCC[C@H]1C(=O)O [YNLP] (H-YNLP-OH)
remaining at 4 h, 5 mg/mL ([1]; replicate 1): 98.7%
remaining at 4 h, 5 mg/mL ([1]; replicate 2): 99%
remaining at 4 h, 5 mg/mL ([1]; replicate 3): 100%
remaining at 2 h, 5 mg/mL ([1]; replicate 1): 97.5%
remaining at 2 h, 5 mg/mL ([1]; replicate 2): 99.8%
remaining at 2 h, 5 mg/mL ([1]; replicate 3): 100%
Resistance to simulated gastric pepsase and trypsase digestion [2]: readily resistant
DPP-IV inhibitory activity (DPP-IV [3]; replicate 1, sheet S2F): 22.415
DPP-IV inhibitory activity (DPP-IV [3]; replicate 2, sheet S2F): 17.2115
DPP-IV inhibitory activity (DPP-IV [3]; replicate 3, sheet S2F): 22.0674
IC50 (DPP-IV [3]; Table S3, read-out: IC50): 510 µM
Kd (DPP-IV [4]; [7]): 100 µM

Molecule: CSCC[C@H](NC(=O)[C@H](CC(C)C)NC(=O)[C@H](CCC(N)=O)NC(=O)[C@@H](N)Cc1ccc(O)cc1)C(=O)O [YQLM] (H-YQLM-OH)
remaining at 4 h, 5 mg/mL ([1]; replicate 1): 14.3%
remaining at 4 h, 5 mg/mL ([1]; replicate 2): 12.7%
remaining at 4 h, 5 mg/mL ([1]; replicate 3): 9.83%
remaining at 2 h, 5 mg/mL ([1]; replicate 2): 14.7%
remaining at 2 h, 5 mg/mL ([1]; replicate 3): 15%
DPP-IV inhibitory activity (DPP-IV [3]; replicate 1, sheet S2F): 41.3327
DPP-IV inhibitory activity (DPP-IV [3]; replicate 2, sheet S2F): 38.0136
DPP-IV inhibitory activity (DPP-IV [3]; replicate 3, sheet S2F): 34.538
IC50 (DPP-IV [3]; Table S3, read-out: IC50): 650 µM
Kd (DPP-IV [4]; [7]): 25.4 µM

Molecule: C[C@H](NC(=O)[C@H](Cc1ccc(O)cc1)NC(=O)[C@H](CO)NC(=O)[C@@H](N)Cc1ccc(O)cc1)C(=O)O [YSYA] (H-YSYA-OH)
remaining at 4 h, 5 mg/mL ([1]; replicate 1): 3.01%
remaining at 4 h, 5 mg/mL ([1]; replicate 2): 3.24%
remaining at 4 h, 5 mg/mL ([1]; replicate 3): 4.18%
remaining at 2 h, 5 mg/mL ([1]; replicate 1): 17.8%
remaining at 2 h, 5 mg/mL ([1]; replicate 2): 17.7%
remaining at 2 h, 5 mg/mL ([1]; replicate 3): 15.2%
DPP-IV inhibitory activity (DPP-IV [3]; replicate 1, sheet S2F): 27.0679
DPP-IV inhibitory activity (DPP-IV [3]; replicate 2, sheet S2F): 29.9267
DPP-IV inhibitory activity (DPP-IV [3]; replicate 3, sheet S2F): 30.8304
IC50 (DPP-IV [3]; Table S3, read-out: IC50): 410 µM
Kd (DPP-IV [4]; [7]): 5.54 µM

Molecule: C[C@@H](O)[C@H](NC(=O)[C@@H](N)Cc1ccc(O)cc1)C(=O)NCC(=O)N[C@@H](CC(=O)O)C(=O)O [YTGD] (H-YTGD-OH)
DPP-IV inhibitory activity (DPP-IV [3]; replicate 1, sheet S2F): 20.1405
DPP-IV inhibitory activity (DPP-IV [3]; replicate 2, sheet S2F): 15.5931
DPP-IV inhibitory activity (DPP-IV [3]; replicate 3, sheet S2F): 21.6532
IC50 (DPP-IV [3]; Table S3, read-out: IC50): 320 µM
Kd (DPP-IV [4]; [7]): 100 µM

Molecule: CN(C)CCCOc1nn(Cc2ccccc2)c2ccccc12 [benzydamine, benzydamine hydrochloride]
Abundance of A. muciniphila in faeces (A. muciniphila [5]): reduced the abundance of A. muciniphila to an extremely low level
Growth of A. muciniphila (A. muciniphila [6]): specifically inhibit the growth of A. muciniphila

Molecule: PSSQQ [PSSQQ]
IC50 (DPP-IV [3]): 730 µM
DPP-IV inhibitory activity (DPP-IV [3]; replicate 1, […]): 8.036
DPP-IV inhibitory activity (DPP-IV [3]; replicate 2, […]): 8.558
DPP-IV inhibitory activity (DPP-IV [3]; replicate 3, […]): 22.2643
Kd (DPP-IV [4]): 37000 µM

Molecule: FDGEL
IC50 of inhibition of DPP-IV activity in vitro (dipeptidyl peptidase IV): 45.1 mM

Molecule: VADW
IC50 of inhibition of DPP-IV activity in vitro (dipeptidyl peptidase IV): 0.35 mM

Molecule: FNPRG
IC50 of inhibition of DPP-IV activity in vitro (dipeptidyl peptidase IV): 40.5 mM

Molecule: PQNHA
IC50 of inhibition of DPP-IV activity in vitro (dipeptidyl peptidase IV): 24.6 mM

Molecule: LNAP
IC50 of inhibition of DPP-IV activity in vitro (dipeptidyl peptidase IV): 0.59 mM

Molecule: FPQS
IC50 of inhibition of DPP-IV activity in vitro (dipeptidyl peptidase IV): 0.35 mM

Molecule: FNVDSE
IC50 of inhibition of DPP-IV activity in vitro (dipeptidyl peptidase IV): 84 mM
